Laboratory results from the supplement of paper PMC10307832.

Assays:
Experiment in all cases: relative viability (nuclei count vs DMSO), 5 days (fraction); higher = more cells survive
[1] = compound: O=C(CCCCCCNC(=O)c1cnc(N(c2ccccc2)c2ccccc2)nc1)NO [Ricolinostat] + CS(=O)(=O)N1CCN(Cc2cc3nc(-c4cccc5[nH]ncc45)nc(N4CCOCC4)c3s2)CC1 [Pictilisib] (partner 1 µM)
Procedure, shortened: (§1)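 Lung cancer cell lines, seeded in 1536-well plates, were treated the following day by pin tool with a single drug or with five library-drug doses (not always all listed) in √10 steps on top of a fixed anchor-drug dose. Cells were fixed and nuclei stained in one step after 5 days, and nuclei were counted. Relative viability is the nuclei count for treated wells divided by that for vehicle wells, reported as medians of duplicate plates.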

[2] = compound: CC1=CN2C(=O)C=C(N=C2C(=C1)C(C)NC3=CC=CC=C3)N4CCOCC4 [TGX 221] + O=C(c1cc(Cc2n[nH]c(=O)c3ccccc23)ccc1F)N1CCN(C(=O)C2CC2)CC1 [Olaparib] (partner 8 µM)
Procedure, shortened: as §1

[3] = compound: CC1=CN2C(=O)C=C(N=C2C(=C1)C(C)NC3=CC=CC=C3)N4CCOCC4 [TGX 221] + COc1cccc2cc(-c3nc([C@H]4CC[C@H](C(=O)O)CC4)n4ncnc(N)c34)[nH]c12 [OSI-027] (partner 0.5 µM)
Procedure, shortened: as §1

[4] = compound: O=C(CCCCCCNC(=O)c1cnc(N(c2ccccc2)c2ccccc2)nc1)NO [Ricolinostat] + O=C(c1cc(Cc2n[nH]c(=O)c3ccccc23)ccc1F)N1CCN(C(=O)C2CC2)CC1 [Olaparib] (partner 8 µM)
Procedure, shortened: as §1

Row | Cell Line | relative viability ([1]; first compound 0.08 µM) | relative viability ([1]; first compound 0.253 µM) | relative viability ([1]; first compound 0.8 µM) | relative viability ([1]; first compound 2.53 µM) | relative viability ([2]; first compound 0.08 µM) | relative viability ([2]; first compound 0.253 µM) | relative viability ([2]; first compound 0.8 µM) | relative viability ([2]; first compound 2.53 µM) | relative viability ([2]; first compound 8 µM) | relative viability ([3]; first compound 0.08 µM) | relative viability ([3]; first compound 0.253 µM) | relative viability ([3]; first compound 0.8 µM) | relative viability ([3]; first compound 2.53 µM) | relative viability ([3]; first compound 8 µM) | relative viability ([4]; first compound 0.08 µM) | relative viability ([4]; first compound 0.253 µM) | relative viability ([4]; first compound 0.8 µM) | relative viability ([4]; first compound 2.53 µM)
1 | A-427 | 0.626 | 0.722 | 0.781 | 0.757 | 0.635 | 0.704 | 0.714 | 0.625 | 0.71 | 0.53 | 0.491 | 0.506 | 0.473 | 0.448 | 0.572 | 0.762 | 0.586 | 0.594
2 | NCI-H1975 | 0.283 | 0.309 | – | 0.231 | 0.757 | 0.747 | 0.802 | 0.679 | 0.659 | 0.694 | 0.676 | 0.653 | 0.528 | 0.555 | 0.85 | 0.768 | 0.713 | 0.643
3 | HCC-827 | 0.956 | 0.965 | 0.948 | 1.09 | 0.647 | 0.55 | 0.615 | 0.526 | 0.0337 | 0.735 | 0.761 | 0.799 | 0.727 | 0.78 | 0.553 | 0.634 | 0.593 | 0.617
4 | UMC-11 | 0.645 | 0.859 | 0.723 | 0.24 | 0.379 | 0.503 | 0.346 | 0.319 | 0.338 | 0.502 | 0.438 | 0.482 | 0.458 | 0.456 | 0.345 | 0.339 | 0.323 | 0.198
5 | NCI-H3122 | 0.533 | 0.606 | 0.696 | 0.866 | 0.596 | 0.625 | 0.596 | 0.562 | 0.643 | 0.874 | 0.929 | 1 | 0.864 | 0.963 | 0.571 | 0.618 | 0.54 | 0.55
6 | LXF-289 | 0.702 | 0.809 | 0.804 | 0.554 | 1.02 | 1.03 | 1.09 | 1.03 | 1.11 | 0.817 | 0.809 | 0.756 | 0.754 | 0.757 | 1.04 | 1.12 | 1.04 | 1.01
7 | NCI-H647 | – | 0.42 | 0.415 | 0.456 | 0.443 | 0.385 | 0.553 | 0.403 | 0.447 | 0.475 | 0.562 | 0.483 | 0.517 | 0.425 | 0.446 | 0.521 | 0.465 | 0.261
8 | COR-L23 | 0.576 | 0.737 | 0.697 | 0.326 | 0.368 | 0.326 | 0.405 | 0.315 | 0.334 | 0.713 | 0.777 | 0.815 | 0.835 | 0.715 | 0.247 | 0.315 | 0.267 | 0.168
9 | BEN | 0.462 | 0.532 | 0.425 | 0.354 | 1.16 | 0.887 | 1.05 | 0.882 | 1.01 | 0.293 | 0.271 | 0.276 | 0.287 | 0.296 | 1.05 | 0.995 | 0.999 | 1.02
10 | LC-2-ad | 0.4 | 0.546 | 0.433 | 0.236 | 0.732 | 0.69 | 0.832 | 0.745 | 0.73 | 0.745 | 0.759 | 0.931 | 0.846 | 0.804 | 0.699 | 0.639 | 0.665 | 0.285
11 | NCI-H650 | – | 0.766 | 0.77 | 0.506 | 0.409 | 0.359 | 0.371 | 0.348 | 0.334 | 0.519 | 0.515 | 0.445 | 0.527 | 0.504 | 0.376 | 0.34 | 0.278 | 0.22
12 | NCI-H1563 | 0.634 | 0.674 | 0.627 | 0.732 | – | – | – | – | – | 0.796 | 0.653 | 0.69 | 0.754 | 0.633 | – | – | – | –
13 | NCI-H1793 | – | 0.31 | 0.311 | 0.298 | 0.786 | 0.507 | 0.612 | 0.414 | 0.502 | 0.249 | 0.237 | 0.248 | 0.183 | 0.218 | 0.692 | 0.825 | 0.903 | 0.902
14 | HCC-78 | – | 0.196 | 0.163 | 0.184 | 0.801 | 0.69 | 0.753 | 0.618 | 0.623 | 0.295 | 0.385 | 0.33 | 0.306 | 0.326 | – | 0.788 | 0.735 | 0.448
15 | LCLC-97TM1 | 0.205 | 0.181 | 0.168 | 0.141 | 0.403 | 0.423 | 0.364 | 0.304 | 0.31 | 0.357 | 0.466 | 0.494 | 0.485 | 0.546 | 0.355 | 0.446 | 0.486 | 0.341
16 | NCI-H2009 | 0.498 | 0.829 | 0.757 | 0.85 | 0.685 | 0.746 | 0.69 | 0.639 | 0.537 | 0.543 | 0.583 | 0.574 | 0.569 | 0.49 | 0.67 | 0.663 | 0.623 | 0.457
